Measurements taken from PubChem BioAssay (NCI).
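How tested: cells in 96-well plates exposed to compound for 48 hours at five concentrations. TGI is the concentration that stops growth completely.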

What was measured:
Experiment in all cases: NCI tumour cell line growth inhibition, 48 h
786-0 renal = tested on: 786-0 renal
A498 renal = tested on: A498 renal
A549 NSCLC = tested on: A549 NSCLC
ACHN renal = tested on: ACHN renal
CAKI-1 renal = tested on: CAKI-1 renal
CCRF-CEM leukemia = tested on: CCRF-CEM leukemia
COLO 205 colon = tested on: COLO 205 colon
DLD-1 colon = tested on: DLD-1 colon
DMS 114 small cell lung = tested on: DMS 114 small cell lung
DMS 273 small cell lung = tested on: DMS 273 small cell lung
EKVX NSCLC = tested on: EKVX NSCLC
HCC-2998 colon = tested on: HCC-2998 colon
HCT-116 colon = tested on: HCT-116 colon
HCT-15 colon = tested on: HCT-15 colon
HL-60(TB) leukemia = tested on: HL-60(TB) leukemia
HOP-18 NSCLC = tested on: HOP-18 NSCLC
HOP-62 NSCLC = tested on: HOP-62 NSCLC
HOP-92 NSCLC = tested on: HOP-92 NSCLC
HT29 colon = tested on: HT29 colon
IGROV1 ovarian = tested on: IGROV1 ovarian
K-562 leukemia = tested on: K-562 leukemia
KM12 colon = tested on: KM12 colon
KM20L2 colon = tested on: KM20L2 colon
LOX IMVI melanoma = tested on: LOX IMVI melanoma
LXFL 529 NSCLC = tested on: LXFL 529 NSCLC
M14 melanoma = tested on: M14 melanoma
MALME-3M melanoma = tested on: MALME-3M melanoma
MOLT-4 leukemia = tested on: MOLT-4 leukemia
NCI-H226 lung = tested on: NCI-H226 lung
NCI-H23 lung = tested on: NCI-H23 lung
NCI-H460 lung = tested on: NCI-H460 lung
NCI-H522 lung = tested on: NCI-H522 lung
OVCAR-3 ovarian = tested on: OVCAR-3 ovarian
OVCAR-4 ovarian = tested on: OVCAR-4 ovarian
OVCAR-5 ovarian = tested on: OVCAR-5 ovarian
OVCAR-8 ovarian = tested on: OVCAR-8 ovarian
RPMI-8226 leukemia = tested on: RPMI-8226 leukemia
RXF 393 renal = tested on: RXF 393 renal
RXF-631 renal = tested on: RXF-631 renal
SF-268 CNS = tested on: SF-268 CNS
SF-295 CNS = tested on: SF-295 CNS
SF-539 CNS = tested on: SF-539 CNS
SK-MEL-2 melanoma = tested on: SK-MEL-2 melanoma
SK-MEL-28 melanoma = tested on: SK-MEL-28 melanoma
SK-MEL-5 melanoma = tested on: SK-MEL-5 melanoma
SK-OV-3 ovarian = tested on: SK-OV-3 ovarian
SN12C renal = tested on: SN12C renal
SNB-19 CNS = tested on: SNB-19 CNS
SNB-75 CNS = tested on: SNB-75 CNS
SNB-78 CNS = tested on: SNB-78 CNS
SR leukemia = tested on: SR leukemia
SW-620 colon = tested on: SW-620 colon
TK-10 renal = tested on: TK-10 renal
U251 CNS = tested on: U251 CNS
UACC-257 melanoma = tested on: UACC-257 melanoma
UACC-62 melanoma = tested on: UACC-62 melanoma
UO-31 renal = tested on: UO-31 renal
XF 498 CNS = tested on: XF 498 CNS
M19-MEL melanoma = tested on: M19-MEL melanoma
MCF7 breast = tested on: MCF7 breast
NCI/ADR-RES ovarian = tested on: NCI/ADR-RES ovarian
P388 leukemia = tested on: P388 leukemia
P388/ADR leukemia = tested on: P388/ADR leukemia
SN12K1 renal = tested on: SN12K1 renal

## COc1ccc(/C=C/c2cc(OC)c(OC)c(OC)c2)cc1OC
786-0 renal
  TGI: > 100 µM
A498 renal
  TGI: > 100 µM
A549 NSCLC
  TGI: > 100 µM
ACHN renal
  TGI: > 100 µM
CAKI-1 renal
  TGI: > 100 µM
CCRF-CEM leukemia
  TGI: > 100 µM
COLO 205 colon
  TGI: > 100 µM
DLD-1 colon
  TGI: > 100 µM
DMS 114 small cell lung
  TGI: > 100 µM
DMS 273 small cell lung
  TGI: > 100 µM
EKVX NSCLC
  TGI: > 100 µM
HCC-2998 colon
  TGI: > 100 µM
HCT-116 colon
  TGI: > 100 µM
HCT-15 colon
  TGI: > 100 µM
HL-60(TB) leukemia
  TGI: > 100 µM
HOP-18 NSCLC
  TGI: > 100 µM
HOP-62 NSCLC
  TGI: > 100 µM
HOP-92 NSCLC
  TGI: > 100 µM
HT29 colon
  TGI: > 100 µM
IGROV1 ovarian
  TGI: > 100 µM
K-562 leukemia
  TGI: > 100 µM
KM12 colon
  TGI: > 100 µM
KM20L2 colon
  TGI: > 100 µM
LOX IMVI melanoma
  TGI: > 100 µM
LXFL 529 NSCLC
  TGI: > 100 µM
M14 melanoma
  TGI: > 100 µM
MALME-3M melanoma
  TGI: > 100 µM
MOLT-4 leukemia
  TGI: > 100 µM
NCI-H226 lung
  TGI: > 100 µM
NCI-H23 lung
  TGI: > 100 µM
NCI-H460 lung
  TGI: > 100 µM
NCI-H522 lung
  TGI: > 100 µM
OVCAR-3 ovarian
  TGI: > 100 µM
OVCAR-4 ovarian
  TGI: > 100 µM
OVCAR-5 ovarian
  TGI: > 100 µM
OVCAR-8 ovarian
  TGI: > 100 µM
RPMI-8226 leukemia
  TGI: > 100 µM
RXF 393 renal
  TGI: > 100 µM
RXF-631 renal
  TGI: > 100 µM
SF-268 CNS
  TGI: > 100 µM
SF-295 CNS
  TGI: > 100 µM
SF-539 CNS
  TGI: > 100 µM
SK-MEL-2 melanoma
  TGI: > 100 µM
SK-MEL-28 melanoma
  TGI: > 100 µM
SK-MEL-5 melanoma
  TGI: > 100 µM
SK-OV-3 ovarian
  TGI: > 100 µM
SN12C renal
  TGI: > 100 µM
SNB-19 CNS
  TGI: > 100 µM
SNB-75 CNS
  TGI: > 100 µM
SNB-78 CNS
  TGI: 91.9 µM
SR leukemia
  TGI: > 100 µM
SW-620 colon
  TGI: > 100 µM
TK-10 renal
  TGI: > 100 µM
U251 CNS
  TGI: > 100 µM
UACC-257 melanoma
  TGI: > 100 µM
UACC-62 melanoma
  TGI: > 100 µM
UO-31 renal
  TGI: > 100 µM
XF 498 CNS
  TGI: > 100 µM

## CCOC(=O)NC(=O)c1cn(CCN(CCO)C(=O)NCCCCCCNC(=O)N(CCO)CCn2cc(C(=O)NC(=O)OCC)c(=O)[nH]c2=O)c(=O)[nH]c1=O
A498 renal
  TGI: > 100 µM
A549 NSCLC
  TGI: > 100 µM
CAKI-1 renal
  TGI: > 100 µM
CCRF-CEM leukemia
  TGI: > 100 µM
COLO 205 colon
  TGI: > 100 µM
DLD-1 colon
  TGI: > 100 µM
DMS 114 small cell lung
  TGI: > 100 µM
DMS 273 small cell lung
  TGI: > 100 µM
EKVX NSCLC
  TGI: > 100 µM
HCC-2998 colon
  TGI: > 100 µM
HCT-116 colon
  TGI: > 100 µM
HCT-15 colon
  TGI: > 100 µM
HL-60(TB) leukemia
  TGI: > 100 µM
HOP-18 NSCLC
  TGI: > 100 µM
HOP-62 NSCLC
  TGI: > 100 µM
HOP-92 NSCLC
  TGI: > 100 µM
HT29 colon
  TGI: > 100 µM
IGROV1 ovarian
  TGI: > 100 µM
K-562 leukemia
  TGI: > 100 µM
KM12 colon
  TGI: > 100 µM
KM20L2 colon
  TGI: > 100 µM
LOX IMVI melanoma
  TGI: > 100 µM
M19-MEL melanoma
  TGI: > 100 µM
MALME-3M melanoma
  TGI: > 100 µM
MCF7 breast
  TGI: > 100 µM
MOLT-4 leukemia
  TGI: > 100 µM
NCI-H226 lung
  TGI: > 100 µM
NCI-H23 lung
  TGI: > 100 µM
NCI-H460 lung
  TGI: > 100 µM
NCI-H522 lung
  TGI: > 100 µM
NCI/ADR-RES ovarian
  TGI: > 100 µM
OVCAR-3 ovarian
  TGI: > 100 µM
OVCAR-4 ovarian
  TGI: > 100 µM
OVCAR-5 ovarian
  TGI: > 100 µM
OVCAR-8 ovarian
  TGI: > 100 µM
P388 leukemia
  TGI: > 100 µM
P388/ADR leukemia
  TGI: > 100 µM
RPMI-8226 leukemia
  TGI: > 100 µM
RXF 393 renal
  TGI: > 100 µM
SF-268 CNS
  TGI: > 100 µM
SF-295 CNS
  TGI: > 100 µM
SF-539 CNS
  TGI: > 100 µM
SK-MEL-2 melanoma
  TGI: > 100 µM
SK-MEL-28 melanoma
  TGI: > 100 µM
SK-MEL-5 melanoma
  TGI: > 100 µM
SN12C renal
  TGI: > 100 µM
SN12K1 renal
  TGI: > 100 µM
SNB-19 CNS
  TGI: > 100 µM
SNB-75 CNS
  TGI: > 100 µM
SNB-78 CNS
  TGI: > 100 µM
SW-620 colon
  TGI: > 100 µM
U251 CNS
  TGI: > 100 µM
UACC-257 melanoma
  TGI: > 100 µM
UACC-62 melanoma
  TGI: > 100 µM
UO-31 renal
  TGI: > 100 µM
XF 498 CNS
  TGI: > 100 µM

## CSc1nc2c(nc(N)n2C2OC(CO)C(O)C(O)C2O)c(=O)[nH]1 (stereo not drawn)
786-0 renal
  TGI: > 100 µM
A498 renal
  TGI: > 100 µM
A549 NSCLC
  TGI: > 100 µM
ACHN renal
  TGI: > 100 µM
CAKI-1 renal
  TGI: > 100 µM
CCRF-CEM leukemia
  TGI: > 100 µM
COLO 205 colon
  TGI: > 100 µM
DLD-1 colon
  TGI: > 100 µM
DMS 114 small cell lung
  TGI: > 100 µM
EKVX NSCLC
  TGI: > 100 µM
HCC-2998 colon
  TGI: > 100 µM
HCT-116 colon
  TGI: > 100 µM
HL-60(TB) leukemia
  TGI: > 100 µM
HOP-18 NSCLC
  TGI: > 100 µM
HOP-62 NSCLC
  TGI: > 100 µM
HOP-92 NSCLC
  TGI: > 100 µM
HT29 colon
  TGI: > 100 µM
IGROV1 ovarian
  TGI: > 100 µM
K-562 leukemia
  TGI: > 100 µM
KM12 colon
  TGI: > 100 µM
KM20L2 colon
  TGI: > 100 µM
LOX IMVI melanoma
  TGI: > 100 µM
LXFL 529 NSCLC
  TGI: > 100 µM
M14 melanoma
  TGI: > 100 µM
M19-MEL melanoma
  TGI: > 100 µM
MALME-3M melanoma
  TGI: > 100 µM
MOLT-4 leukemia
  TGI: > 100 µM
NCI-H226 lung
  TGI: > 100 µM
NCI-H23 lung
  TGI: > 100 µM
NCI-H460 lung
  TGI: > 100 µM
NCI-H522 lung
  TGI: > 100 µM
OVCAR-3 ovarian
  TGI: > 100 µM
OVCAR-4 ovarian
  TGI: > 100 µM
OVCAR-8 ovarian
  TGI: > 100 µM
RXF 393 renal
  TGI: > 100 µM
RXF-631 renal
  TGI: > 100 µM
SF-268 CNS
  TGI: > 100 µM
SF-295 CNS
  TGI: > 100 µM
SF-539 CNS
  TGI: > 100 µM
SK-MEL-28 melanoma
  TGI: > 100 µM
SK-MEL-5 melanoma
  TGI: > 100 µM
SK-OV-3 ovarian
  TGI: > 100 µM
SN12C renal
  TGI: > 100 µM
SNB-19 CNS
  TGI: > 100 µM
SNB-75 CNS
  TGI: > 100 µM
SNB-78 CNS
  TGI: > 100 µM
SR leukemia
  TGI: > 100 µM
SW-620 colon
  TGI: > 100 µM
TK-10 renal
  TGI: > 100 µM
U251 CNS
  TGI: > 100 µM
UACC-257 melanoma
  TGI: > 100 µM
UACC-62 melanoma
  TGI: > 100 µM
UO-31 renal
  TGI: > 100 µM
XF 498 CNS
  TGI: > 100 µM
